The text below walks through data of paper PMC8400806, “Discovery of Amide-Functionalized Benzimidazolium Salts as Potent α-Glucosidase Inhibitors” (Molecules, 2021).

The target in one data set is T1, α-glucosidase enzyme (Saccharomyces cerevisiae, UniProt P53341).
T1 construct: purchased Sigma-Aldrich, Munich, Germany
As to the kind of experiment: biochemical. The following applies: for α-glucosidase inhibitory activity, in words: verbal rating in the SAR discussion. It counts as biochemical. The procedure:
The solution of the α-glucosidase enzyme (obtained from Saccharomyces cerevisiae (Sigma-Aldrich, Munich, Germany)) was prepared in phosphate buffer (pH 6.8, 100 mM). The synthesized compounds were dissolved in dimethyl sulfoxide (DMSO). […] Afterwards, 40 μL of 5 mM p-nitrophenyl-α-D-glucopyranoside (Sigma-Aldrich, Munich, Germany) was poured into each well and further incubated for an additional half-hour. […] Acarbose (Sigma-Aldrich, Munich, Germany) and DMSO were used as reference inhibitors and negative control, respectively. The tests were conducted in triplicate and percent inhibitions were calculated using the following formula: % Inhibition = [(A control − A sample)/A control] × 100 where ‘A’ stands for absorbance.
The IC50 values of the synthesized compounds and acarbose were also determined.

“Also recorded” adds a separate entry of the source. Where a name gives a salt, the structure may show the parent alone. Read-outs that look alike come from different tables or passages of the source.

T1 sequence (P53341 whole entry): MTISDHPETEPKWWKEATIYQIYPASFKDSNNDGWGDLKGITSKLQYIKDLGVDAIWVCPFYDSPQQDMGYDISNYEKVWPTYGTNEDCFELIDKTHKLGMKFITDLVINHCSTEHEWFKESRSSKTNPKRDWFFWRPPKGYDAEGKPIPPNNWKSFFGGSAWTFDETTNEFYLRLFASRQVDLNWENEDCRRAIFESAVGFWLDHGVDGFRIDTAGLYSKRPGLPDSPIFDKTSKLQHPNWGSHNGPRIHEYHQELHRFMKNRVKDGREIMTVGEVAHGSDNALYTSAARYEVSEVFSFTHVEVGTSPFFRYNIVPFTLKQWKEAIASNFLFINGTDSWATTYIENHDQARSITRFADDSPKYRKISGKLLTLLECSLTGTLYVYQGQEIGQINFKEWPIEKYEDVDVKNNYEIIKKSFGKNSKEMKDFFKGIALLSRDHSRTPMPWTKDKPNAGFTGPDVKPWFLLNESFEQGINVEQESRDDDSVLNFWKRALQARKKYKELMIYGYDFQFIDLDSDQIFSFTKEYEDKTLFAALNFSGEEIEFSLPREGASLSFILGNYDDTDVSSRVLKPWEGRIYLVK

`Cc1ccc(NC(=O)C[n+]2cn(Cc3ccccc3)c3ccccc32)cc1.[Br-]` [Compound 9k, 1-Benzyl-3-{2-oxo-2-(p-tolylamino)ethyl}-1H-benzo[d]imidazol-3-ium bromide] returned a melting point of 148 to 149 °C. The IC50 at α-glucosidase enzyme stood at 201.13 ± 0.105 µM.
`COc1ccccc1NC(=O)C[n+]1c(C)n(Cc2ccccc2)c2ccccc21.[Br-]` [Compound 10l, 1-Benzyl-3-[2-{(2-methoxyphenyl)amino}-2-oxoethyl]-2-methyl-1H-benzo[d]imidazol-3-ium bromide] showed a melting point of 244 to 246 °C. In addition, the IC50 against α-glucosidase enzyme was found to be 25 ± 0.011 µM.
`O=C(C[n+]1cn(Cc2ccccc2)c2ccccc21)Nc1ccc(Br)cc1` [Compound 9e, 1-Benzyl-3-[2-{(4-bromophenyl)amino)}-2-oxoethyl]-1H-benzo[d]imidazol-3-ium bromide]: on α-glucosidase enzyme (S. cerevisiae enzyme 0.5 U/mL, phosphate buffer pH 6.8, 37 °C, triplicate, read-out: IC50 α-glucosidase inhibition), the IC50 worked out at 198 ± 0.103 µM.
In turn, `Cc1n(Cc2ccccc2)c2ccccc2[n+]1CC(=O)Nc1ccc(Br)cc1.[Br-]` [Compound 10e, 1-Benzyl-3-[2-{(4-bromophenyl)amino}-2-oxoethyl]-2-methyl-1H-benzo[d]imidazol-3-ium bromide] returned a melting point of 212 °C. Besides, on α-glucosidase enzyme, the IC50 stood at 30 ± 0.049 µM and the “α-glucosidase inhibitory activity, in words” value was “higher activity than acarbose”.
On the same counts, the results for `COc1ccc(NC(=O)C[n+]2cn(Cc3ccccc3)c3ccccc32)cc1.[Br-]` [Compound 9m, 1-Benzyl-3-[2-{(4-methoxyphenyl)amino}-2-oxoethyl]-1H-benzo[d]imidazol-3-ium bromide] are 171 to 173 °C, 279.28 ± 0.03 µM and “lowest α-glucosidase inhibitory results in their respective series”.
In the case of `O=C(C[n+]1cn(Cc2ccccc2)c2ccccc21)Nc1cccc([N+](=O)[O-])c1.[Br-]` [Compound 9g, 1-Benzyl-3-[2-{(3-nitrophenyl)amino}-2-oxoethyl]-1H-benzo[d]imidazol-3-ium bromide], the melting point was in the range of 162 to 163 °C. Also, at α-glucosidase enzyme, the concentration for half-maximal inhibition (IC50) was determined as 215.73 ± 0.112 µM.
Regarding `Cc1n(Cc2ccccc2)c2ccccc2[n+]1CC(=O)Nc1ccc([N+](=O)[O-])cc1` [Compound 10h, 1-Benzyl-2-methyl-3-[2-{(4-nitrophenyl)amino)}-2-oxoethyl]-1H-benzo[d]imidazol-3-ium bromide], at α-glucosidase enzyme, the IC50 is 17 ± 0.067 µM and the “α-glucosidase inhibitory activity, in words” value was “promising α-glucosidase inhibitory results”.
In the case of `O=C(C[n+]1cn(Cc2ccccc2)c2ccccc21)Nc1ccccc1[N+](=O)[O-].[Br-]` [Compound 9f, 1-Benzyl-3-[2-{(2-nitrophenyl)amino}-2-oxoethyl]-1H-benzo[d]imidazol-3-ium bromide], the melting point was in the range of 142 to 143 °C. For the same molecule, it took 241 ± 0.027 µM to reach half-maximal inhibition against α-glucosidase enzyme (IC50).
On to `Cc1n(Cc2ccccc2)c2ccccc2[n+]1CC(=O)Nc1ccccc1[N+](=O)[O-].[Br-]` [Compound 10f, 1-Benzyl-2-methyl-3-[2-{(2-nitrophenyl)amino}-2-oxoethyl]-1H-benzo[d]imidazol-3-ium bromide], for which, at α-glucosidase enzyme, the IC50 is 60 ± 0.025 µM and the “α-glucosidase inhibitory activity, in words” value is “considerable decline in activity”.
Consider `Cc1cccc(NC(=O)C[n+]2c(C)n(Cc3ccccc3)c3ccccc32)c1.[Br-]` [Compound 10j, 1-Benzyl-2-methyl-3-{2-oxo-2-(m-tolylamino)ethyl}-1H-benzo[d]imidazol-3-ium bromide], for which the melting point was in the range of 192 to 194 °C. Besides, on α-glucosidase enzyme, inhibition was half-maximal at 60 ± 0.041 µM (IC50) and the “α-glucosidase inhibitory activity, in words” value was “poor inhibitors”.
On the same counts, the results for `Cc1n(Cc2ccccc2)c2ccccc2[n+]1CC(=O)Nc1cccc([N+](=O)[O-])c1.[Br-]` [Compound 10g, 1-Benzyl-2-methyl-3-[2-{(3-nitrophenyl)amino}-2-oxoethyl]-1H-benzo[d]imidazol-3-ium bromide] are 180 to 182 °C, 19 ± 0.086 µM and “promising α-glucosidase inhibitory results”.
Take `Cc1n(Cc2ccccc2)c2ccccc2[n+]1CC(=O)Nc1cccc(Br)c1.[Br-]` [Compound 10d, 1-Benzyl-3-[2-{(3-bromophenyl)amino}-2-oxoethyl]-2-methyl-1H-benzo[d]imidazol-3-ium bromide]: the melting point is 242 °C. On α-glucosidase enzyme, the IC50 is 14 ± 0.013 µM and the “α-glucosidase inhibitory activity, in words” value is reported as “higher activity than acarbose”. Also, the “α-glucosidase inhibitory potential, fold higher than the standard drug acarbose” value on α-glucosidase enzyme (from IC50 values versus acarbose) is reported as 4 fold.
The molecule `COc1ccc(NC(=O)C[n+]2c(C)n(Cc3ccccc3)c3ccccc32)cc1.[Br-]` [Compound 10m, 1-Benzyl-3-[2-{(4-methoxyphenyl)amino}-2-oxoethyl]-2-methyl-1H-benzo[d]imidazole-3-ium bromide] came in with a melting point of 235 to 238 °C. Moreover, the IC50 at α-glucosidase enzyme was 16.16 ± 0.026 µM.
As for `Cc1n(Cc2ccccc2)c2ccccc2[n+]1CC(=O)Nc1ccc([N+](=O)[O-])cc1` (as salt: bromide) [Compound 10h, 1-Benzyl-2-methyl-3-[2-{(4-nitrophenyl)amino)}-2-oxoethyl]-1H-benzo[d]imidazol-3-ium bromide], the melting point was in the range of 222 to 224 °C.
Molecule `Cc1n(Cc2ccccc2)c2ccccc2[n+]1CC(=O)Nc1cccc(Cl)c1.[Br-]` [Compound 10a, 1-Benzyl-3-[2-{(3-chlorophenyl)amino}-2-oxoethyl]-2-methyl-1H-benzo[d]imidazol-3-ium bromide] had a melting point of 210 to 213 °C. This molecule registered an IC50 at α-glucosidase enzyme of 22 ± 0.04 µM.
As for `Cc1n(Cc2ccccc2)c2ccccc2[n+]1CC(=O)Nc1ccccc1Br` (as salt: bromide) [Compound 10c, 1-Benzyl-3-[2-{(2-bromophenyl)amino)}-2-oxoethyl]-2-methyl-1H-benzo[d]imidazol-3-ium bromide], the melting point is 252 °C.
For `Cc1ccc(NC(=O)C[n+]2c(C)n(Cc3ccccc3)c3ccccc32)cc1.[Br-]` [Compound 10k, 1-Benzyl-2-methyl-3-{2-oxo-2-(p-tolylamino)ethyl}-1H-benzo[d]imidazol-3-ium bromide], the melting point lay in the range of 220 to 221 °C. For the same molecule, on α-glucosidase enzyme, the IC50 stood at 32.27 ± 0.05 µM and the “α-glucosidase inhibitory activity, in words” value was “moderately active”.
`O=C(C[n+]1cn(Cc2ccccc2)c2ccccc21)Nc1ccc(Cl)cc1.[Br-]` [Compound 9b, 1-Benzyl-3-[2-{(4-chlorophenyl)amino}-2-oxoethyl]-1H-benzo[d]imidazol-3-ium bromide] registered a melting point of 197 to 198 °C. The half-inhibitory concentration (IC50) at α-glucosidase enzyme was determined as 169.16 ± 0.023 µM.
The corresponding values for `O=C(C[n+]1cn(Cc2ccccc2)c2ccccc21)Nc1cccc(Cl)c1.[Br-]` [Compound 9a, 1-Benzyl-3-[2-{(3-chlorophenyl)amino}-2-oxoethyl]-1H-benzo[d]imidazol-3-ium bromide] are 205 to 207 °C and 150.7 ± 0.045 µM.
In turn, `Cc1ccccc1NC(=O)C[n+]1c(C)n(Cc2ccccc2)c2ccccc21.[Br-]` [Compound 10i, 1-Benzyl-2-methyl-3-{2-oxo-2-(o-tolylamino)ethyl}-1H-benzo[d]imidazol-3-ium bromide] yielded a melting point of 168 to 170 °C. Also, on α-glucosidase enzyme, the IC50 worked out at 100 ± 0.048 µM and the “α-glucosidase inhibitory activity, in words” value was “poor inhibitors; also recorded: lowest α-glucosidase inhibitory results in their respective series”.
The molecule `Cc1cccc(NC(=O)C[n+]2cn(Cc3ccccc3)c3ccccc32)c1.[Br-]` [Compound 9j, 1-Benzyl-3-{2-oxo-2-(m-tolylamino)ethyl}-1H-benzo[d]imidazol-3-ium bromide] displayed a melting point of 132 to 134 °C. This molecule also came in with an IC50 against α-glucosidase enzyme of 200.14 ± 0.039 µM.
Turning to `Cc1n(Cc2ccccc2)c2ccccc2[n+]1CC(=O)Nc1ccccc1Br` [Compound 10c, 1-Benzyl-3-[2-{(2-bromophenyl)amino)}-2-oxoethyl]-2-methyl-1H-benzo[d]imidazol-3-ium bromide], on α-glucosidase enzyme, the midpoint of inhibition, the IC50, lay at 46 ± 0.106 µM and the “α-glucosidase inhibitory activity, in words” value is reported as “higher activity than acarbose”.
In turn, `Cc1n(Cc2ccccc2)c2ccccc2[n+]1CC(=O)Nc1ccc(Cl)cc1.[Br-]` [Compound 10b, 1-Benzyl-3-[2-{(4-chlorophenyl)amino}-2-oxoethyl]-2-methyl-1H-benzo[d]imidazol-3-ium bromide] came in with a melting point of 178 to 180 °C. The molecule also came in with an IC50 against α-glucosidase enzyme of 60 ± 0.041 µM.
The corresponding values for `O=C(C[n+]1cn(Cc2ccccc2)c2ccccc21)Nc1ccccc1Br.[Br-]` [Compound 9c, 1-Benzyl-3-[2-{(2-bromophenyl)amino}-2-oxoethyl]-1H-benzo[d]imidazol-3-ium bromide] are 192 to 194 °C and 70.01 ± 0.037 µM.
`O=C(C[n+]1cn(Cc2ccccc2)c2ccccc21)Nc1ccc([N+](=O)[O-])cc1.[Br-]` [Compound 9h, 1-Benzyl-3-[2{(4-nitrophenyl)amino}-2-oxoethyl]-1H-benzo[d]imidazol-3-ium bromide]: the melting point was 152 to 153 °C.
Consider `Cc1ccccc1NC(=O)C[n+]1cn(Cc2ccccc2)c2ccccc21.[Br-]` [Compound 9i, 1-Benzyl-3-{2-oxo-2-(o-tolylamino)ethyl}-1H-benzo[d]imidazol-3-ium bromide], for which the melting point was 162 to 163 °C. The same molecule gave an IC50 against α-glucosidase enzyme of 259.86 ± 0.043 µM.
In turn, `O=C(C[n+]1cn(Cc2ccccc2)c2ccccc21)Nc1cccc(Br)c1.[Br-]` [Compound 9d, 1-Benzyl-3-[2-{(3-bromophenyl)amino}-2-oxoethyl]-1H-benzo[d]imidazol-3-ium bromide] returned a melting point of 176 to 178 °C. Further, it took 171.11 ± 0.089 µM to reach half-maximal inhibition against α-glucosidase enzyme (IC50).

By IC50 is commonly meant the concentration that inhibits the measured activity by half. Usually melting point stands for the temperature, or range, at which the solid turns liquid.
